Data from patent US20230003721A1, “MITOTHERAPEUTICS FOR THE TREATMENT OF BRAIN DISORDERS” (The University of Florida Research Foundation, Inc., priority 2019, published 2023).
Structures can show the parent of a compound that is named as a salt.

System: hippocampal neurons
Test: Spontaneous excitatory postsynaptic currents (sEPSC), whole-cell patch-clamp
Assay type: cell-based, mouse
Details: 12.5 μM, 24 hr, DIV8
Method: Spontaneous excitatory postsynaptic currents in hippocampal neurons. […] The cultures were treated with selected compounds or 0.1% DMSO for 24 hr before measuring spontaneous excitatory postsynaptic currents (sEPSCs). Whole-cell patch-clamp recordings were performed using an Axon Multiclamp 700b amplifier, 1440A Digidata digitizer and data acquisition using pClamp software (Axon Instruments, Foster City, Calif.). The neurons were first recorded in a current clamp mode to monitor cell health. Only neurons with a resting membrane potential of less than −40 mV were used for further analysis. sEPSC recordings were made at 50 kHz and subsequently filtered at 5 kHz. The membrane potential was held at −70 mV during the recording. […] Once a neuron was patched, its seal was monitored, and if the transient resistance was less than […], the recording was not used for analysis. All experiments were performed at room temperature. The frequency and amplitude of sEPSCs were analyzed using the template match search (pClamp) and measured as a percentage of baseline level, calculated from the average of a 5 min baseline recording. The values of the amplitude and frequency of EPSCs for each recording was reported as an average from a 5 min recording period.

In the case of `CCCCOc1ccc(C(=O)CCN2CCCCC2)cc1` [DYCLONINE HYDROCHLORIDE], the “sEPSC frequency and amplitude” value is reported as “increasing both frequency and amplitude”.
